“Also recorded” adds a separate entry of the source.
Legend:
SSAO [1] = target: T1, SSAO (Homo sapiens, UniProt Q16853); experiment: Plasma SSAO/amine oxidase activity and methylamine after a single dose of Compound 1; assay type: in vivo
T1 construct: from tissue; host or cells: human plasma from dosed participants
T1 sequence (Q16853 29-763 limits assumed): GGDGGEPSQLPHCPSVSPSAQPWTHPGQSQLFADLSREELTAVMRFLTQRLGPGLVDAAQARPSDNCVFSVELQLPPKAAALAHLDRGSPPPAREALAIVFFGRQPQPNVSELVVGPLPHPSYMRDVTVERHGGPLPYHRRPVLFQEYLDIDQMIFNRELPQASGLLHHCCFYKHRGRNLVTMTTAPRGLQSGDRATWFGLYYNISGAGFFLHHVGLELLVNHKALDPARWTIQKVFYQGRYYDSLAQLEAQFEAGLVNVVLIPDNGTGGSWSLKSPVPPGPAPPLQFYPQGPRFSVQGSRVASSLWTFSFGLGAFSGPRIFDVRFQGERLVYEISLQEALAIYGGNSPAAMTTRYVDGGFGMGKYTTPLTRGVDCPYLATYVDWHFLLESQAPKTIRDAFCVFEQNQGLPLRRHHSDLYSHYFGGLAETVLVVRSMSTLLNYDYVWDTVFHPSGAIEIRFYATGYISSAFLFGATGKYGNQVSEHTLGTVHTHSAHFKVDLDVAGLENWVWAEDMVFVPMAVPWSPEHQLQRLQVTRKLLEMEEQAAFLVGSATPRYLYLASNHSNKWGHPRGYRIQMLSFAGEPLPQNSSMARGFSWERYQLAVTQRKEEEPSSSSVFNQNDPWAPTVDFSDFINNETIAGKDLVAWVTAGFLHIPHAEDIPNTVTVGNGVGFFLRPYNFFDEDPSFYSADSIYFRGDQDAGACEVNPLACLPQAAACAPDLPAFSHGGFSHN
Method: Safety was assessed for 7 (±3) days after dosing.
Plasma PK parameters were determined by non-compartmental analysis.
SSAO-specific amine oxidase levels in plasma were determined using a kinetic-based assay essentially as described previously (Schilter et al). Endogenous monoamine oxidases A and B were inhibited by adding pargyline to plasma samples prior to measuring H2O2 generation levels in placebo and active recipients.

SSAO [2] = target: T1, SSAO; experiment: Plasma SSAO activity and methylamine, multiple doses of Compound 1; assay type: in vivo
Method: A multiple-ascending dose clinical trial of Compound 1 was performed.

[3] = Single-ascending dose trial of Compound 1 in healthy participants: safety and plasma PK
Method: SSAO inhibition was determined by measuring relative reductions in plasma H2O2 generation after addition of an exogenous substrate (benzylamine). […] Safety was assessed for 7 (±3) days after dosing.
Plasma PK parameters were determined by non-compartmental analysis. […] Percent change in total amine oxidase activity was determined relative to the corresponding pre-dose (baseline) samples.

THR-β [4] = target: T2, THR-β (Homo sapiens, UniProt P10828); experiment: Binding activity to the thyroxine receptor beta
T2 sequence (P10828 1-461): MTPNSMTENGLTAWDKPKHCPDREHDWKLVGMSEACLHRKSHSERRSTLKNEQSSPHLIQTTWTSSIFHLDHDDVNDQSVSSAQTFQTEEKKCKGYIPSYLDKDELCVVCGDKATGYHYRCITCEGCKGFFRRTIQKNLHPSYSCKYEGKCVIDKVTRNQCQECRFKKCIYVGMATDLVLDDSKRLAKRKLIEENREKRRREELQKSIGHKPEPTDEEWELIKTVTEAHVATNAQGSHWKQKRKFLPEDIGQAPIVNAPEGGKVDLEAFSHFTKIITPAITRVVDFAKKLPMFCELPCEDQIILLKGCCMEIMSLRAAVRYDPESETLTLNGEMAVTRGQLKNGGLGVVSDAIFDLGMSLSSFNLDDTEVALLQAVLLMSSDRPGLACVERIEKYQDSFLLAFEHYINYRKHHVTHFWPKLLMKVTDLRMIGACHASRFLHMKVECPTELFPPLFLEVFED

THR-β [5] = target: T2, THR-β; experiment: Agonistic activity toward the thyroxine receptor beta; assay type: biochemical
Approximate pKa = assay type: physicochemical
[6] = Multiple ascending doses of Compound 2 in healthy subjects with elevated LDL-c; assay type: in vivo, human; settings: 1, 3, 6, 10 mg QD 14 days
Method: Healthy volunteers with mildly elevated LDL-c were randomized 3:1 to Compound 2 (n=6) or placebo (n=2). Volunteers randomized to Compound 2 received multiple doses of 1, 3, 6 or 10 mg of Compound 2 once daily for 14 days in the MAD cohort of the study.

P-glycoprotein (P-gp) = P-glycoprotein (P-gp) (Homo sapiens, UniProt P08183); assay type: in vitro ADME
Sequence of P-glycoprotein (P-gp) (P08183 whole entry): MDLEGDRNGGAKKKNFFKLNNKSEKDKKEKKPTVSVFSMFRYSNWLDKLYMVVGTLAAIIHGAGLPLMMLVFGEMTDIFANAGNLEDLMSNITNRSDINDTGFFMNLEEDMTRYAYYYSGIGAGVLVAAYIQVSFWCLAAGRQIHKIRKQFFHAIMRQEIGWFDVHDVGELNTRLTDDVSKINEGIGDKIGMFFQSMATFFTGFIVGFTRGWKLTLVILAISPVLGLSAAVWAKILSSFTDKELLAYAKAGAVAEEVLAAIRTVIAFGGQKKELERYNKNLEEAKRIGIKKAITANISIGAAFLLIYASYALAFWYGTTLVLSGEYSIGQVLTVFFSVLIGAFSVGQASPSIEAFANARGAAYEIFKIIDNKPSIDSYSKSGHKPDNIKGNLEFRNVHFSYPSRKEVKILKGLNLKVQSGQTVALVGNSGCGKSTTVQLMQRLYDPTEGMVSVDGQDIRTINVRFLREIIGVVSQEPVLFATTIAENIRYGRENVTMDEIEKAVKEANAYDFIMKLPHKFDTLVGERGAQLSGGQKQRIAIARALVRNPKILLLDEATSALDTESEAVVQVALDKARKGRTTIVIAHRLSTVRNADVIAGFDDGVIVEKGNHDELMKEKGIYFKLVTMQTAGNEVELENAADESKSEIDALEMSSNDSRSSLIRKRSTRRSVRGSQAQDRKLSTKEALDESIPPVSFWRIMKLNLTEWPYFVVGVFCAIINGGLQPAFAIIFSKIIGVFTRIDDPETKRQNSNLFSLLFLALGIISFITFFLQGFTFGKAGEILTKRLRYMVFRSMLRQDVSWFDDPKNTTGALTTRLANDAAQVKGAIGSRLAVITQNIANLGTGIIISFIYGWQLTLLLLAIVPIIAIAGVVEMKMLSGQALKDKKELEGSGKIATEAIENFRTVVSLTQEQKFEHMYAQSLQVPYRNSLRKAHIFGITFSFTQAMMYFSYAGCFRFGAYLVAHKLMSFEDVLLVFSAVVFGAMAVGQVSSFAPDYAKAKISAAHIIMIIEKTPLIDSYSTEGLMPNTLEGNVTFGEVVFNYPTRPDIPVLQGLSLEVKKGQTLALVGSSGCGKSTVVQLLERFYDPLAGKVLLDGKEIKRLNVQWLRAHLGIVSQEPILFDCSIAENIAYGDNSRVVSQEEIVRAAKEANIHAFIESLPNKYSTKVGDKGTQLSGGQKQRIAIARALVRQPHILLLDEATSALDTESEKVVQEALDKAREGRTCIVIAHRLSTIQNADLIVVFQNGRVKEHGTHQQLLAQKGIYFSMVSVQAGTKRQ

[7] = all single-dose cohorts, 1-10 mg or placebo (n = 32)
[8] = single dose 1 mg or placebo (n = 8)
[9] = single dose 3 mg or placebo (n = 8)
[10] = single dose 6 mg or placebo (n = 8)
[11] = single dose 10 mg or placebo (n = 8)

With `COC1CCN(c2ncc(OC/C(=C/F)CN)cn2)CC1` [Compound 1, (E)-3-fluoro-2-(((2-(4-methoxypiperidin-1-yl)pyrimidin-5-yl)oxy)methyl)prop-2-en-1-amine] the “inhibition of plasma SSAO activity” value (SSAO [1]; 4 hours post-dose, all dose cohorts (1-10 mg)) was “Near complete inhibition”, the “duration of suppression of plasma SSAO activity after a single dose” value (SSAO [1]; single dose 1-10 mg) was “up to 1 week” and the “plasma methylamine (MMA)” value (SSAO [1]; single dose 1-10 mg) was “Maximum plasma MMA levels increased; also recorded: Dose-dependent increases”. The “suppression of plasma VAP-1/SSAO-specific amine oxidase activity” value (SSAO [2]; 10 mg, healthy participants (Example 2)) was > 90%, the “inhibition of plasma SSAO activity” value (SSAO [2]; Day 1, all dose cohorts) was “Near complete inhibition” and the plasma methylamine levels (SSAO [2]; first daily dose 1, 4, 10 mg) was “increased in a dose proportional manner”. For the same compound, the “duration of inhibition of plasma SSAO amine oxidase activity after cessation of dosing” value (SSAO [2]; multiple QD doses) was “up to 2 weeks”, the “Subject incidence of TEAEs considered possibly treatment-related” value [3, 7] was 1 (3.1) and the “Subject incidence of any TEAE” value [3, 7] was 5 (15.6). For the same compound, the “TEAE frequency: constipation” value [3, 7] was 1 (3.1), the “TEAE frequency: contact dermatitis” value [3, 7] was 2 (6.3) and the “TEAE frequency: dysgeusia” value [3, 7] was 1 (3.1). The “TEAE frequency: headache” value [3, 7] was 1 (3.1), the “TEAE frequency: sore throat” value [3, 7] was 1 (3.1) and the “TEAE frequency: upper respiratory tract infection” value [3, 7] was 1 (3.1). For the same compound, the “Subject incidence of TEAEs considered possibly treatment-related” value [3, 8] was 0, the “Subject incidence of any TEAE” value [3, 8] was 0 and the “TEAE frequency: constipation” value [3, 8] was 0. The “TEAE frequency: contact dermatitis” value [3, 8] was 0, the “TEAE frequency: dysgeusia” value [3, 8] was 0 and the “TEAE frequency: headache” value [3, 8] was 0. The “TEAE frequency: sore throat” value [3, 8] was 0, the “TEAE frequency: upper respiratory tract infection” value [3, 8] was 0 and the “Subject incidence of TEAEs considered possibly treatment-related” value [3, 9] was 0. For the same compound, the “Subject incidence of any TEAE” value [3, 9] was 0, the “TEAE frequency: constipation” value [3, 9] was 0 and the “TEAE frequency: contact dermatitis” value [3, 9] was 0. The “TEAE frequency: dysgeusia” value [3, 9] was 0, the “TEAE frequency: headache” value [3, 9] was 0 and the “TEAE frequency: sore throat” value [3, 9] was 0. The “TEAE frequency: upper respiratory tract infection” value [3, 9] was 0, the “Subject incidence of TEAEs considered possibly treatment-related” value [3, 10] was 0 and the “Subject incidence of any TEAE” value [3, 10] was 2. The “TEAE frequency: constipation” value [3, 10] was 0, the “TEAE frequency: contact dermatitis” value [3, 10] was 2 and the “TEAE frequency: dysgeusia” value [3, 10] was 0. The “TEAE frequency: headache” value [3, 10] was 0, the “TEAE frequency: sore throat” value [3, 10] was 1 and the “TEAE frequency: upper respiratory tract infection” value [3, 10] was 0. The “Subject incidence of TEAEs considered possibly treatment-related” value [3, 11] was 1 (12.5), the “Subject incidence of any TEAE” value [3, 11] was 3 (37.5) and the “TEAE frequency: constipation” value [3, 11] was 1 (12.5). The “TEAE frequency: contact dermatitis” value [3, 11] was 0, the “TEAE frequency: dysgeusia” value [3, 11] was 1 (12.5) and the “TEAE frequency: headache” value [3, 11] was 1 (12.5). For the same compound, the “TEAE frequency: sore throat” value [3, 11] was 0, the “TEAE frequency: upper respiratory tract infection” value [3, 11] was 1 (12.5) and the “plasma PK exposure, dose proportionality” value ([3]; single dose, between 1 and 10 mg) was “greater than dose proportional”. For the same compound, the safety and tolerability ([3]; single oral dose 1 mg to 10 mg) was “No clinically relevant adverse events or laboratory abnormalities; also recorded: safe and well tolerated”.

In the case of `N#Cc1nn(-c2cc(Cl)c(Oc3n[nH]c(=O)c4ccccc34)c(Cl)c2)c(=O)[nH]c1=O` [Compound 2, 2-(3,5-dichloro-4-((4-oxo-3,4-dihydrophthalazin-1-yl)oxy)phenyl)-3,5-dioxo-2,3,4,5-tetrahydro-1,2,4-triazine-6-carbonitrile], the THR-α/-β selectivity (THR-β [4]; ratio of binding IC50) is reported as >58.8 factor, the IC50 (THR-β [4]; read-out: IC50 THR-β binding force) is reported as 170 nM and the EC50 (THR-β [5]) is reported as 1750 nM. For the same compound, the pKa (Approximate pKa) was ~4.12, the “PK dose proportionality and variability” value [6] was “dose-proportional PK with low variability” and the SHBG [6] was “increased SHBG”. For the same compound, the “circulating atherogenic lipid levels (LDL-c, Apo B, total cholesterol, triglycerides)” value [6] was “significant decreases”, the “free T4” value [6] was “Dose-dependent declines” and the safety and tolerability [6] was “generally safe and well-tolerated”. For the same compound, the “subjects with ALT increase to ≥2×ULN” value [6] was “No subject”.

`Cn1cc(C(=O)O)c2ccc(N3CCC(OCc4c(-c5c(Cl)cccc5Cl)noc4C4CC4)CC3)cc21` [Compound 3] gave an IC50 (P-glycoprotein (P-gp)) of 3920 nM.
